Results: paper PMC12136037, “Type II kinase inhibitors that target Parkinson’s disease–associated LRRK2” (Science Advances, 2025)

Key:
Test in all cases: DSF 100 kinase selectivity screen;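 note: compound tested at 20 µM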
Type in all cases: binding
[1] = target: T1, ~100 representative kinases (Homo sapiens, UniProt P51813); settings: Protein BMX; average of three replicates
T1 construct: Recombinant protein kinase domains with a concentration of 2 μM
T1 sequence (P51813 1-675): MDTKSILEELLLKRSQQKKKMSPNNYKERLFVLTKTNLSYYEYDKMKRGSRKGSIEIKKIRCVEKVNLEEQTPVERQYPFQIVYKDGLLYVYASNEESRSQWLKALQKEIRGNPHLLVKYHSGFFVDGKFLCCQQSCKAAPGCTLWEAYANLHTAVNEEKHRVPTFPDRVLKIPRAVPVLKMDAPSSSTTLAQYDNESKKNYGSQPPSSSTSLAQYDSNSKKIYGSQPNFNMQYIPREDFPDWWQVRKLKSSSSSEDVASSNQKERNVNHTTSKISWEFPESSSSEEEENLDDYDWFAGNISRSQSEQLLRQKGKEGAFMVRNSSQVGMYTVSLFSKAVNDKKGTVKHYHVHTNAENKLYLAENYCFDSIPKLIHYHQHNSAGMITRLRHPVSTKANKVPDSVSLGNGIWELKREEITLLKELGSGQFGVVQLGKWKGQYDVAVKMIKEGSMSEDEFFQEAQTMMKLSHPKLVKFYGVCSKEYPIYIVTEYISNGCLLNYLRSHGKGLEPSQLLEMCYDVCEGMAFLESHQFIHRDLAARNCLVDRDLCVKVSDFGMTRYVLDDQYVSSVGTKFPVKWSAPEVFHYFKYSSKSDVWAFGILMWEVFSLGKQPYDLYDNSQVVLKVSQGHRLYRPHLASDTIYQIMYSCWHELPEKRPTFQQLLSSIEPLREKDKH
Summary of the method: (§1)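 Each kinase domain, at 2 μM, is mixed with 20 μM test compound and SYPRO Orange in Hepes (20 mM, pH 7.5) with 500 mM NaCl. Temperature is then raised at 3°C/min and fluorescence-monitored unfolding yields the melting temperature change, ΔTm in degrees Celsius.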

[2] = target: T2, ~100 representative kinases (Homo sapiens, UniProt P55201); settings: Protein BRPF1; average of three replicates
T2 construct: Recombinant protein kinase domains with a concentration of 2 μM
T2 sequence (P55201 1-1214): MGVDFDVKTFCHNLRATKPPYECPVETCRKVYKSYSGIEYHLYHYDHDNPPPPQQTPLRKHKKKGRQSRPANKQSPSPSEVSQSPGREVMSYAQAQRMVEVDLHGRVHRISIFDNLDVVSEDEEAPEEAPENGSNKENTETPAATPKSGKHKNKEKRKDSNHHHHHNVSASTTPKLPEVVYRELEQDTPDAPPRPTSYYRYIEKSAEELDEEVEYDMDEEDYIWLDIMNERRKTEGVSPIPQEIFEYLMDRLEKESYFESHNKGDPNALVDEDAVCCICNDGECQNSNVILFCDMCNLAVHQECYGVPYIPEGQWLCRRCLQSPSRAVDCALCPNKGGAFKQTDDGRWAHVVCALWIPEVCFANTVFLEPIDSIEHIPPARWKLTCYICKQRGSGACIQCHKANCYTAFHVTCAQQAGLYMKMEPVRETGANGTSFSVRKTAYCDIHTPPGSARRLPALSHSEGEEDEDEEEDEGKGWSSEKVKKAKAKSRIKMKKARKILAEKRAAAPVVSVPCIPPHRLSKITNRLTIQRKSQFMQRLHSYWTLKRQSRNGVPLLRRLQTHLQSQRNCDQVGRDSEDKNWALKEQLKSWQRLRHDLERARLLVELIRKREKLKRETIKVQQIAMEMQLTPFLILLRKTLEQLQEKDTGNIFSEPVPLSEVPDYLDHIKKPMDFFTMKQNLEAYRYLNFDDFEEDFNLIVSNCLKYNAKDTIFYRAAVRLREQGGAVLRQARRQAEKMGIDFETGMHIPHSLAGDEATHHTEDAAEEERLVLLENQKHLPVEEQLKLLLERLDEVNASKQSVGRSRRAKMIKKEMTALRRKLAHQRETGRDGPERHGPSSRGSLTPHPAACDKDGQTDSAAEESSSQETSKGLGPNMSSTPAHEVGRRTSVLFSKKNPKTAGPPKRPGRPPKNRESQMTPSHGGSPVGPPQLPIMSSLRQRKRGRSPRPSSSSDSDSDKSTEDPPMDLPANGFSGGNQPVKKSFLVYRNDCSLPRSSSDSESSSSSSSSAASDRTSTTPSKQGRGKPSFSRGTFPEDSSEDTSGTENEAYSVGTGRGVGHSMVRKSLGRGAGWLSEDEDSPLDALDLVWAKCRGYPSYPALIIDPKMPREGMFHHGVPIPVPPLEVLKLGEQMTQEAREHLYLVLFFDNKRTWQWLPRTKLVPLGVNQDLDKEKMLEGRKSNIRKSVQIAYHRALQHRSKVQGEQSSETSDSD
Summary of the method: as §1

[3] = target: T3, ~100 representative kinases (Homo sapiens, UniProt Q6PHR2); settings: Protein ULK3; DSF; average of three replicates
T3 construct: Recombinant protein kinase domains with a concentration of 2 μM
T3 sequence (Q6PHR2 1-472): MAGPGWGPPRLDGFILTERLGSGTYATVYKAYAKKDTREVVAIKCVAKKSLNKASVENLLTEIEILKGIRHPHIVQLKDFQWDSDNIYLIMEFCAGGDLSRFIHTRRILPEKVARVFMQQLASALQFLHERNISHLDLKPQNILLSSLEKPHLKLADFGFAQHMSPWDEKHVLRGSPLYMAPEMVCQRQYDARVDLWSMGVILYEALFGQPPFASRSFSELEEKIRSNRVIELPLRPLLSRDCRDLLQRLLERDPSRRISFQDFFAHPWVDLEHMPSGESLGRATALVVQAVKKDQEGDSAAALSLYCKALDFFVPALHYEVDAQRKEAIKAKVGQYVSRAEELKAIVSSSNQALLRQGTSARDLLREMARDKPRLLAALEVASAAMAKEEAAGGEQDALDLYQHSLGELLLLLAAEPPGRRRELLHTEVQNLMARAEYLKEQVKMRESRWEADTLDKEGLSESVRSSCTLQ
Summary of the method: as §1

[4] = target: T4, ~100 representative kinases (Homo sapiens, UniProt P49674); settings: Protein CSNK1E; average of three replicates
T4 construct: Recombinant protein kinase domains with a concentration of 2 μM
Summary of the method: as §1

T4 sequence (P49674 whole entry, the tested form may be a part): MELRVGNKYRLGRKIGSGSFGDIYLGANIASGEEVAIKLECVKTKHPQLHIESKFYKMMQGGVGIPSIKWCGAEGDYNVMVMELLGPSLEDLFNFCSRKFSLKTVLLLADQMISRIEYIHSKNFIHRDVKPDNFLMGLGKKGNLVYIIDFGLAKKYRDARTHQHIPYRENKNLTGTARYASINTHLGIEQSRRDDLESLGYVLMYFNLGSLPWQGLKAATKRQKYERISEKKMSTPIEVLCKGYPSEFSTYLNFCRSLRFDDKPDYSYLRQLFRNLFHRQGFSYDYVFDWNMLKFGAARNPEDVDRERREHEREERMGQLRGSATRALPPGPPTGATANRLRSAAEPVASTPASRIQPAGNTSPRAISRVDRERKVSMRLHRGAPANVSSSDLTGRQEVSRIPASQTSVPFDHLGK

| dTm [1] | dTm [2] | dTm [3] | dTm [4] | Structure (SMILES) |
| --- | --- | --- | --- | --- |
| 0.39 K | 0.13 K | 7.39 K | 4.37 K | O=C(Nc1ccc(F)cc1)C1(C(=O)Nc2cccc(-c3c[nH]c4ncnc(N5CCOCC5)c34)c2)CC1 [Compound 2] |
| 0.51 K | 0.87 K | 3.31 K | 4.54 K | Cc1cc(NC(=O)C2(C(=O)Nc3ccc(F)cc3)CC2)cc(-c2c[nH]c3ncnc(N4CCOCC4)c23)c1 [Compound 6] |
| 0.67 K | -0.65 K | 9.91 K | 5.46 K | O=C(Nc1ccc(Cl)cc1)C1(C(=O)Nc2cccc(-c3c[nH]c4ncnc(N5CCOCC5)c34)c2)CC1 [Compound 13] |
| 0.15 K | -0.72 K | 7.72 K | 3.41 K | Cc1ccc(NC(=O)C2(C(=O)Nc3cccc(-c4c[nH]c5ncnc(N6CCOCC6)c45)c3)CC2)cc1 [Compound 14] |
| -0.18 K | -0.96 K | 5.26 K | 2.19 K | COc1ccc(NC(=O)C2(C(=O)Nc3cccc(-c4c[nH]c5ncnc(N6CCOCC6)c45)c3)CC2)cc1 [Compound 16] |
| 0.61 K | 0.79 K | 7.52 K | 5.09 K | O=C(Nc1cccc(-c2c[nH]c3ncnc(N4CCOCC4)c23)c1)C1(C(=O)Nc2ccc(F)c(F)c2)CC1 [Compound 17] |
| 1.13 K | 1.47 K | 9.54 K | 5.76 K | O=C(Nc1cccc(-c2c[nH]c3ncnc(N4CCOCC4)c23)c1)C1(C(=O)Nc2ccc(F)c(Cl)c2)CC1 [Compound 18] |
| 0.24 K | 2.17 K | 5.66 K | 6.33 K | O=C(Nc1cccc(-c2c[nH]c3ncnc(N4CCOCC4)c23)c1)C1(C(=O)Nc2ccc(F)c(Br)c2)CC1 [Compound 19] |
| 1.40 K | 0.26 K | 10.21 K | 6.52 K | Cc1cc(NC(=O)C2(C(=O)Nc3cccc(-c4c[nH]c5ncnc(N6CCOCC6)c45)c3)CC2)ccc1F [Compound 20] |
| 0.38 K | -0.32 K | 8.22 K | 5.78 K | COc1cc(NC(=O)C2(C(=O)Nc3cccc(-c4c[nH]c5ncnc(N6CCOCC6)c45)c3)CC2)ccc1F [Compound 21] |
| 0.22 K | 0.18 K | 8.50 K | 3.09 K | O=C(Nc1cccc(-c2c[nH]c3ncnc(N4CCOCC4)c23)c1)C1(C(=O)Nc2ccc(F)cc2F)CC1 [Compound 23] |
| 0.32 K | -0.10 K | 7.53 K | 3.91 K | Cc1cc(F)ccc1NC(=O)C1(C(=O)Nc2cccc(-c3c[nH]c4ncnc(N5CCOCC5)c34)c2)CC1 [Compound 24] |
| 0.52 K | 2.67 K | 7.46 K | 4.18 K | O=C(Nc1cc(F)cc(Br)c1)C1(C(=O)Nc2cccc(-c3c[nH]c4ncnc(N5CCOCC5)c34)c2)CC1 [Compound 27] |

Continued, compound first:

| Structure (SMILES) | dTm [1] | dTm [2] | dTm [3] | dTm [4] |
| --- | --- | --- | --- | --- |
| Cc1ccc(C(=O)Nc2ccc(CN3CCN(C)CC3)c(C(F)(F)F)c2)cc1C#Cc1c[nH]c2ncnc(N3CCOCC3)c12 [Compound 1] | 1.60 K | -0.28 K | 9.22 K | – |
| O=C(Nc1cccc(-c2c[nH]c3ncnc(N4CCOCC4)c23)c1)c1cccn(-c2ccc(F)cc2)c1=O [Compound 4] | 1.71 K | -1.48 K | 8.63 K | 7.33 K |
| O=C(Nc1cccc(-c2c[nH]c3ncnc(N4CCOCC4)c23)c1)C1(C(=O)Nc2cccc3c2CCC3)CC1 [Compound 11] | 1.17 K | 1.49 K | 5.81 K | 4.91 K |
| O=C(Nc1ccccc1)C1(C(=O)Nc2cccc(-c3c[nH]c4ncnc(N5CCOCC5)c34)c2)CC1 [Compound 12] | 0.86 K | -0.42 K | 7.80 K | 3.99 K |
| CCc1ccc(NC(=O)C2(C(=O)Nc3cccc(-c4c[nH]c5ncnc(N6CCOCC6)c45)c3)CC2)cc1 [Compound 15] | 0.11 K | -0.75 K | 8.77 K | 2.91 K |
| CC(C)(C)c1cccc(NC(=O)C2(C(=O)Nc3cccc(-c4c[nH]c5ncnc(N6CCOCC6)c45)c3)CC2)c1 [Compound 22] | 1.67 K | 1.91 K | 11.44 K | 6.66 K |
| O=C(Nc1cccc(-c2c[nH]c3ncnc(N4CCOCC4)c23)c1)C1(C(=O)Nc2cc(Br)c(F)cc2F)CC1 [Compound 25] | 1.31 K | 1.93 K | 9.25 K | 2.14 K |
| O=C(Nc1cccc(-c2c[nH]c3ncnc(N4CCOCC4)c23)c1)C1(C(=O)Nc2ccc(F)c(Br)c2F)CC1 [Compound 26] | -0.35 K | 1.97 K | 7.33 K | 4.57 K |
| CC(C)(C)c1cc(NC(=O)Nc2cccc(-c3c[nH]c4ncnc(N5CCOCC5)c34)c2)n(-c2ccc3ncccc3c2)n1 [Compound 28] | 2.95 K | 0.57 K | 7.06 K | 1.81 K |
| CCNc1nc(Nc2cc(F)c(C(=O)N3CCOCC3)cc2OC)ncc1C(F)(F)F [GNE-7915] | -0.0422 K | -1.14 K | 1.79 K | – |
| Cc1ccc(C(=O)Nc2ccc(CN3CCN(C)CC3)c(C(F)(F)F)c2)cc1C#Cc1cnc2[nH]ncc2c1 [GZD-824, reference compound] | – | -0.65 K | 9.35 K | – |
| C[C@@H]1CN(c2cc(-c3n[nH]c4ccc(OC5(C)CC5)cc34)ncn2)C[C@H](C)O1 [MLi2] | -2.53 K | -1.36 K | 0.19 K | – |
| Cn1cc(-c2c[nH]c3ncnc(N4CCOCC4)c23)cc1C#N [PFE-360] | 0.47 K | -1.30 K | 5.19 K | – |
